Measurements reported in US5585373A, “3-(7'-oxo-1'-aza-4'-oxabicyclo[3.2.0]-hept-3'-YL)propionic acid derivative as antitumor agent” (priority 1994, dated 1996).
Values after ≈ are worked out from the molar mass of the structure shown.

Assays:
KB cells = test: In Vitro KB Cell Cytotoxicity Assay; type: cell-based; details: Homo sapiens, 72 h, crystal violet staining, 3 days incubation
Method: Pharmacological Test 1 (In Vitro KB Cell Cytotoxicity Assay)
The cytotoxicity against KB cells was determined in accordance with a protein staining method (Grillis et al., Anal. Biochem., 159, 109 (1986)) using crystal violet. Stated more specifically, KB cells were incubated in an Eagle's minimum medium containing 10% FCS in a CO2 incubator at 37° C. The number of the cells was counted with a hemocytometer. A 100 μl quantity of the cell suspension, 3×10^4 cells/ml, was placed into each well of a 96-well plate and incubated for 24 hours. Portions (100 μl) of the drug diluted to final concentrations of 10, 1, 0.1, 0.01 and 0.001 μg/ml were added, as one dosage, to three wells, respectively. A drug-free medium was added to the wells of the control group. After incubation for 3 days, 25 μl of 25% glutaraldehyde was added and fixed for 15 minutes, followed by washing with water and drying. A 100 μl quantity of 0.05% crystal violet was added for 15 minutes of staining, followed by washing with water and drying. Extraction was performed with 100 μl of 0.05M NaH2 PO4 /EtOH (1:1 volume ratio). The absorbance was measured at a wavelength of 540 nm with a multi-scan spectrophotometer. The percent cell growth inhibition was calculated based on the absorbance by the following equation [formula]
The IC50 value (concentration of the drug for inhibiting the cell growth by 50%) was calculated through log-logit transformation of the dose-response curve and linear regression.

Sarcoma 180 = test: In Vivo Antitumor Activity against Sarcoma 180; details: for Mortality in 12 days: intraperitoneal, every four days, three times, ICR mice; for Cell growth inhibition rate: ip
Method: Pharmacological Test 2 (In Vivo Antitumor Activity against Sarcoma 180)
5×10^6 cells of transplantable mouse tumor, Sarcoma 180, were subcutaneously transplanted in the dorsal portion of 6-week-old male ICR mice (6-7 mice in each group). The test drug was dissolved in physiological saline containing 0.25 % Tween 80 and 3.5% dimethyl sulfoxide. The solution was intraperitoneally administered to the mice every four days, starting the administration 24 hours after the transplantation, three times in total. On the 12th day after the transplantation, the tumors were removed from the bodies and weighed. The average weight of the tumors in the test group and the corresponding weight in the control group were calculated to determine the ratio of tumor growth inhibition.

SMILES	IC50 (KB cells) [µg/mL]	also measured
O=C(OCc1ccccc1)[C@H](O)[C@@H](O)[C@H]1CN2C(=O)C[C@@H]2O1 [Compound 4, benzyl(2R,3R)-2,3-dihydroxy-3-[(3'R,5'S)-7'-oxo-1'-aza-4'-oxabicylo[3.2.0]hept-3'-yl]propionate]	0.07 (≈ 0.228 µM)	–
N[C@H](C(=O)O)[C@@H](OCC1CC1)[C@H]1CN2C(=O)C[C@@H]2O1 [Compound 32e, 3-[(3'R,5'S)-7'-oxo-1'-aza-4'-oxabicyclo[3.2.0]hept-3'-yl]-2(S)-amino-3(R )-cyclopropylmethyloxypropionic acid]	0.4 (≈ 1.48 µM)	–
O=C(OCc1ccccc1)[C@@H](O)[C@@H](O)[C@H]1CN2C(=O)C[C@@H]2O1 [Compound 6, benzyl (2S,3R)-2,3-dihydroxy-3-[(3'R,5'S)-7'-oxo-1'-aza-4'-oxabicylo[3.2.0]hept-3'-yl]propionate]	0.09 (≈ 0.293 µM)	–
O=C(OCc1ccccc1)[C@@H](O)[C@H](O)[C@H]1CN2C(=O)C[C@@H]2O1 [Compound 5, benzyl(2S,3S)-2,3-dihydroxy-3-[(3'R,5'S)-7'-oxo-1'-aza-4'-oxabicyclo[3.2.0]hept-3'-yl]propionate]	0.3 (≈ 0.976 µM)	–
N[C@H](C(=O)O)[C@@H](OCc1ccccc1)[C@H]1CN2C(=O)C[C@@H]2O1 [Compound 32b, 3-[(3'R,5'S)-7'-oxo-1'-aza-4'-oxabicyclo[3.2.0]hept-3'-yl]-2(S)-amino-3(R)-benzyloxypropionic acid]	0.06 (≈ 0.196 µM)	Mortality in 12 days (Sarcoma 180; 0.1 mg/kg/day): 0/6; Mortality in 12 days (Sarcoma 180; 1.0 mg/kg/day): 0/6; Cell growth inhibition rate (Sarcoma 180; 0.1 mg/kg): 12%; Cell growth inhibition rate (Sarcoma 180; 1 mg/kg): 38%
N[C@H](C(=O)O)[C@@H](OCc1ccc(F)cc1)[C@H]1CN2C(=O)C[C@@H]2O1 [Compound 32c, 3-[(3'R,5'S)-7'-oxo-1'-aza-4'-oxabicyclo[3.2.0]hept-3'-yl]-2(S)-amino-3(R )-(4"-fluorobenzyl)oxy-propionic acid]	0.04 (≈ 0.123 µM)	–
CC(=O)O[C@@H]([C@H]1CN2C(=O)C[C@@H]2O1)[C@@H](N)C(=O)O [Compound 12a, 3(R)-acetoxy-2(R)-amino-3-[(3'R,5'S)-7'-oxo-1'-aza-4'-oxabicyclo[3.2.0]hept-3'-yl]propionic acid]	3 (≈ 11.6 µM)	–
N[C@@H](C(=O)O)[C@@H](OC(=O)c1ccccc1)[C@H]1CN2C(=O)C[C@@H]2O1 [Compound 12b, 2(R)-amino-3(R)-benzoyloxy-3-[(3'R,5'S)-7'-oxo-1'-aza-4'-oxabicyclo[3.2.0]hept-3'-yl]propionic acid]	0.3 (≈ 0.937 µM)	Mortality in 12 days (Sarcoma 180; 5 mg/kg/day): 0/7; Mortality in 12 days (Sarcoma 180; 10 mg/kg/day): 0/7; Mortality in 12 days (Sarcoma 180; 20 mg/kg/day): 0/7; Cell growth inhibition rate (Sarcoma 180; 5 mg/kg): 19%; Cell growth inhibition rate (Sarcoma 180; 10 mg/kg): 19%; Cell growth inhibition rate (Sarcoma 180; 20 mg/kg): 31%
O=C(OC(c1ccccc1)c1ccccc1)[C@H]([C@@H](OCc1ccccc1)[C@H]1CN2C(=O)C[C@@H]2O1)N(Cc1ccccc1)C(=O)OCc1ccccc1 [Compound 42, diphenylmethyl 3-[(3'R,5'S)-7'-oxo-1'-aza-4'-oxabicyclo[3.2.0]hept-3'-yl]-2(S)-(N-benzyloxycarbonyl-N-benzyl)amino-3(R)-benzyloxypropionate]	3 (≈ 4.31 µM)	–
COc1ccc(CO[C@H]([C@H](N)C(=O)O)[C@H]2CN3C(=O)C[C@@H]3O2)cc1 [Compound 32d, 3-[(3'R,5'S)-7'-oxo-1'-aza-4'-oxabicyclo[3.2.0]hept-3'-yl]-2(S)-amino-3(R)-(4"-methoxybenzyl)oxypropionic acid]	0.09 (≈ 0.268 µM)	–
O=C(OC(c1ccccc1)c1ccccc1)[C@H]([C@@H](OCc1ccccc1)[C@H]1CN2C(=O)C[C@H]2O1)N(Cc1ccccc1)C(=O)OCc1ccccc1 [Compound 43, diphenylmethyl 3-[(3'R,5'R)-7'-oxo-1'-aza-4'-oxabicyclo[3.2.0]hept-3'-yl]-2(S)-(N-benzyloxycarbonyl-N-benzyl)amino-3(R)-benzyloxypropionate]	3 (≈ 4.31 µM)	–
O=C(OCc1ccccc1)[C@H](O)[C@H](O)[C@H]1CN2C(=O)C[C@@H]2O1 [Compound 7, benzyl(2R,3S)-2,3-dihydroxy-3-[(3'R,5'S)-7'-oxo-1'-aza-4'-oxabicyclo[3.2.0]hept-3'-yl]propionate]	0.09 (≈ 0.293 µM)	–
CO[C@H]([C@H](N)C(=O)O)[C@H]1CN2C(=O)C[C@@H]2O1 [Compound 32a, 3-[(3'R,5'S)-7'-oxo-1'-aza-4'-oxabicyclo[3.2.0]hept-3'-yl]-2(S)-amino-3(R)-methoxypropionic acid]	0.03 (≈ 0.13 µM)	–
